Laboratory results from patent US20170334899A1, “AMINO-SUBSTITUTED ISOTHIAZOLES” (Bayer Pharma Aktiengesellschaft, priority 2014, published 2017).

The molecules below were run against T1, CDK2/CycE (Homo sapiens, UniProt P24941) (assay: CDK2/CycE kinase assay (TR-FRET)). Settings: avg, read-out: CDK2 avg (IC50 [mol/l]).
T1 construct: GST; purchased ProQinase GmbH (Freiburg, Germany); host or cells: insect cells (Sf9)
Type: biochemical
Source text: CDK2/CycE -inhibitory activity of compounds of the present invention was quantified employing the CDK2/CycE TR-FRET assay as described in the following paragraphs.
Recombinant fusion proteins of GST and human CDK2 and of GST and human CycE, expressed in insect cells (Sf9) and purified by Glutathion-Sepharose affinity chromatography, were purchased from ProQinase GmbH (Freiburg, Germany). As substrate for the kinase reaction biotinylated peptide biotin-Ttds-YISPLKSPYKISEG (C-terminus in amid form) was used which can be purchased e.g. form the company JERINI peptide technologies (Berlin, Germany).
For the assay 50 nl of a 100fold concentrated solution of the test compound in DMSO was pipetted into a black low volume 384we11 microtiter plate (Greiner Bio-One, Frickenhausen, Germany), 2 μl of a solution of CDK2/CycE in aqueous assay buffer [50 mM Tris/HCl pH 8.0, 10 mM MgCl2, 1.0 mM dithiothreitol, 0.1 mM sodium ortho-vanadate, 0.01% (v/v) Nonidet-P40 (Sigma)] were added and the mixture was incubated for 15 min at 22° C. to allow pre-binding of the test compounds to the enzyme before the start of the kinase reaction. Then the kinase reaction was started by the addition of 3 μl of a solution of adenosine-tri-phosphate (ATP, 16.7 μM=>final conc. in the 5 μl assay volume is 10 μM) and substrate (1.25 μM=>final conc. in the 5 μl assay volume is 0.75 μM) in assay buffer and the resulting mixture was incubated for a reaction time of 25 min at 22° C. The concentration of CDK2/CycE was adjusted depending of the activity of the enzyme lot and was chosen appropriate to have the assay in the linear range, typical concentrations were in the range of 130 ng/ml. The reaction was stopped by the addition of 5 μl of a solution of TR-FRET detection reagents (0.2 μM streptavidine-XL665 [Cisbio Bioassays, Codolet, France] and 1 nM anti-RB(pSer807/pSer811)-antibody from BD Pharmingen [#558389] and 1.2 nM LANCE EU-W1024 labeled anti-mouse IgG antibody [Perkin-Elmer, product no. AD0077, as an alternative a Terbium-cryptate-labeled anti-mouse IgG antibody from Cisbio Bioassays can be used]) in an aqueous EDTA-solution (100 mM EDTA, 0.2% (w/v) bovine serum albumin in 100 mM HEPES/NaOH pH 7.0).
The resulting mixture was incubated 1 h at 22° C. to allow the formation of complex between the phosphorylated biotinylated peptide and the detection reagents. Subsequently the amount of phosphorylated substrate was evaluated by measurement of the resonance energy transfer from the Eu-chelate to the streptavidine-XL. Therefore, the fluorescence emissions at 620 nm and 665 nm after excitation at 350 nm was measured in a TR-FRET reader, e.g. a Rubystar (BMG Labtechnologies, Offenburg, Germany) or a Viewlux (Perkin-Elmer). The ratio of the emissions at 665 nm and at […] was taken as the measure for the amount of phosphorylated substrate. The data were normalised (enzyme reaction without inhibitor=0% inhibition, all other assay components but no enzyme=100% inhibition).
In the case of `Cc1noc(-c2cccc(NC(=O)c3c(C)nsc3Nc3cnc4ccccc4n3)c2)n1` [Example 106, 3-Methyl-N-[3-(3-methyl-1,2,4-oxadiazol-5-yl)phenyl]-5-(quinoxalin-2-ylamino)-1,2-thiazole-4-carboxamide], the IC50 is reported as ≥ 20 µM. For `Cc1nsc(Nc2cnc3ccccc3n2)c1C(=O)Nc1cccc(C(=O)N[C@H](C(=O)O)[C@@H](C)O)c1` [Example 105, N-[3-({[3-methyl-5-(quinoxalin-2-ylamino)-1,2-thiazol-4-yl]carbonyl}amino)-benzoyl]threonine], the IC50 was ≥ 20 µM. For `Cc1nsc(Nc2cnc(C(F)(F)F)cn2)c1C(=O)Nc1ccc(O[C@H]2CCN(CCC(F)(F)F)C[C@H]2F)nc1` [Example 146, N-(6-{[(3R,4S)-3-fluoro-1-(3,3,3-trifluoropropyl)piperidin-4-yl]oxy}pyridin-3-yl)-3-methyl-5-{[5-(trifluoromethyl)pyrazin-2-yl]amino}-1,2-thiazole-4-carboxamide], the IC50 was > 20 µM. `Cc1nsc(Nc2cnc3ccccc3n2)c1C(=O)Nc1cccc(C(=O)N2CCCC2)c1` [Example 113, 3-Methyl-N-[3-(pyrrolidin-1-ylcarbonyl)phenyl]-5-(quinoxalin-2-ylamino)-1,2-thiazole-4-carboxamide] was tested, and the IC50 was ≥ 20 µM. In the case of `Cc1nsc(Nc2cnc(C(F)(F)F)cn2)c1C(=O)Nc1ccc(OC[C@H]2CCN(CC(F)F)C2)nc1` [Example 132, N-(6-{[(3S)-1-(2,2-difluoroethyl)pyrrolidin-3-yl]methoxy}pyridin-3-yl)-3-methyl-5-{[5-(trifluoromethyl)pyrazin-2-yl]amino}-1,2-thiazole-4-carboxamide], the IC50 is reported as > 20 µM. For `Cc1nsc(Nc2cnc(C(F)(F)F)cn2)c1C(=O)Nc1ccc(O[C@H]2CCN(CC(F)(F)F)C[C@H]2F)nc1` [Example 145, N-(6-{[(3R,4S)-3-fluoro-1-(2,2,2-trifluoroethyl)piperidin-4-yl]oxy}pyridin-3-yl)-3-methyl-5-{[5-(trifluoromethyl)pyrazin-2-yl]amino}-1,2-thiazole-4-carboxamide], the IC50 was > 20 µM. With `Cc1nsc(Nc2cnc(C(F)(F)F)cn2)c1C(=O)Nc1ccc(C(=O)N2CCN(CC(F)F)CC2)cc1` [Example 154, N-(4-{[4-(2,2-difluoroethyl)piperazin-1-yl]carbonyl}phenyl)-3-methyl-5-{[5-(trifluoromethyl)pyrazin-2-yl]amino}-1,2-thiazole-4-carboxamide] the IC50 was > 20 µM. `Cc1nsc(Nc2cnc3ccccc3n2)c1C(=O)Nc1cccc(C(=O)N2CCNCC2)c1` [Example 101, 3-Methyl-N-[3-(piperazin-1-ylcarbonyl)phenyl]-5-(quinoxalin-2-ylamino)-1,2-thiazole-4-carboxamide] was tested, and the IC50 was ≥ 20 µM. For `Cc1nsc(Nc2cnc(C(F)(F)F)cn2)c1C(=O)Nc1ccc(O[C@@H]2CCN(CC(F)(F)F)C[C@@H]2F)nc1` [Example 138, N-(6-{[(3S,4R)-3-fluoro-1-(2,2,2-trifluoroethyl)piperidin-4-yl]oxy}pyridin-3-yl)-3-methyl-5-{[5-(trifluoromethyl)pyrazin-2-yl]amino}-1,2-thiazole-4-carboxamide], the IC50 was > 20 µM. `Cc1nsc(Nc2cnc3cc(F)ccc3n2)c1C(=O)Nc1ccc(S(N)(=O)=O)cc1` [Example 149, 5-[(6-fluoroquinoxalin-2-yl)amino]-3-methyl-N-(4-sulfamoylphenyl)-1,2-thiazole-4-carboxamide] was tested, and the IC50 was > 20 µM. With `Cc1nsc(Nc2cnc(C(F)(F)F)cn2)c1C(=O)Nc1ccc(OCC2CCN(CCC(F)(F)F)C2)nc1` (stereo not drawn) [Example 124, 3-methyl-5-{[5-(trifluoromethyl)pyrazin-2-yl]amino}-N-(6-{[1-(3,3,3-trifluoropropyl)pyrrolidin-3-yl]methoxy}pyridin-3-yl)-1,2-thiazole-4-carboxamide] the IC50 was ≥ 20 µM. For `Cc1nsc(Nc2cnc(C(F)(F)F)cn2)c1C(=O)Nc1ccc(OC2CCN(CC(F)(F)F)CC2)c(F)c1` [Example 163, N-(3-fluoro-4-{[1-(2,2,2-trifluoroethyl)piperidin-4-yl]oxy}phenyl)-3-methyl-5-{[5-(trifluoromethyl)pyrazin-2-yl]amino}-1,2-thiazole-4-carboxamide], the IC50 was > 20 µM. `Cc1nsc(Nc2cncc(C(F)(F)F)n2)c1C(=O)Nc1ccc(C(=O)NCCN2CCCC(F)C2)cc1` (stereo not drawn) [Example 155, N-(4-{[2-(3-fluoropiperidin-1-yl)ethyl]carbamoyl}phenyl)-3-methyl-5-{[6-(trifluoromethyl)pyrazin-2-yl]amino}-1,2-thiazole-4-carboxamide] gave an IC50 of 4.1 µM. `CCCN1CC[C@@H](Oc2ccc(NC(=O)c3c(C)nsc3Nc3cnc(C(F)(F)F)cn3)cn2)[C@@H](F)C1` [Example 140, N-(6-{[(3S,4R)-3-fluoro-1-propylpiperidin-4-yl]oxy}pyridin-3-yl)-3-methyl-5-{[5-(trifluoromethyl)pyrazin-2-yl]amino}-1,2-thiazole-4-carboxamide] was tested, and the IC50 was > 20 µM. `CCCCN1CC[C@H](Oc2ccc(NC(=O)c3c(C)nsc3Nc3cnc(C(F)(F)F)cn3)cn2)[C@H](F)C1` [Example 148, N-(6-{[(3R,4S)-1-butyl-3-fluoropiperidin-4-yl]oxy}pyridin-3-yl)-3-methyl-5-{[5-(trifluoromethyl)pyrazin-2-yl]amino}-1,2-thiazole-4-carboxamide] was tested, and the IC50 was > 20 µM.
